Laboratory results reported in patent publication US20140342931A1, “METHOD FOR PREDICTING RESPONSE TO ENDOCRINE THERAPY” (PAMGENE B.V., priority 2011, published 2014).

Test system: Estrogen Receptor alpha (ERα)
Excerpt: Under tamoxifen, a known antagonist of the ERα, this phosphorylation affects the conformation of ERα and changes its orientation to the protein SRC-1. In this example we studied the effect of ERαSer305 phosphorylation on the binding of cofactors in transfected cells and in breast tumor specimens. We used the methods and coregulator peptide array as described in WO 2008/028978 containing 154 coregulator peptides (table 1).
ERαY/C-transfected U2OS cells were stimulated with cAMP to induce PKA-mediated ERα phosphorylation. The serine-to-alanine mutant ERαSer305Ala-Y/C was used as a negative control (FIG. 1).
The effect of PKA activation on peptide binding was also studied under tamoxifen conditions.

Row | Compound | modulation of ERα binding to coregulators (concentration range of estradiol up to 10^−8 M, control peptide IDNR13 (NCOA1_677_700), wild type and Ser305Ala ERα, cAMP stimulated and control cells) | ERα binding to the control peptide (IDNR13) at saturating tamoxifen concentrations (concentration range up to 10^-5 M, ERα-wt and ERαSer305Ala, with or without cAMP (PKA activation))
1 | C[C@]12CC[C@@H]3c4ccc(O)cc4CC[C@H]3[C@@H]1CC[C@@H]2O [estradiol, 17-β-Estradiol] | dose dependent modulation | –
2 | 4-hydroxy-Tamoxifen [4OH-tamoxifen] | – | largely blocked
